Source: ChEMBL document CHEMBL4813985, “Lead optimization generates selenium-containing miconazole CYP51 inhibitors with improved pharmacological profile for the treatment of fungal infections” (Eur J Med Chem, 2021)
In brackets after ≈: the same amount, converted by molar mass.

How the values were obtained:
Format in all cases: functional
[1] = system: Candida albicans; assay: Antifungal activity against Candida albicans CPCC400616 measured after 24 hrs by broth microdilution assay
[2] = system: Candida albicans; assay: Antifungal activity against Candida albicans ATCC SC5314 measured after 24 hrs by broth microdilution assay
[3] = system: [Candida] zeylanoides; assay: Antifungal activity against Candida zeylanoides CMGCC2.3739 measured after 24 hrs by broth microdilution assay; details: Dujonia zeylanoides
[4] = system: Cryptococcus neoformans; assay: Antifungal activity against Cryptococcus neoformans CMGCC2.3161 measured after 72 hrs by broth microdilution assay
[5] = system: Pichia kudriavzevii; assay: Antifungal activity against Candida krusei AS2.1045 measured after 24 hrs by broth microdilution assay
[6] = system: Nakaseomyces glabratus; assay: Antifungal activity against Candida glabrata measured after 24 hrs by broth microdilution assay
[7] = system: Candida parapsilosis; assay: Antifungal activity against Candida parapsilosis ATCC 22019 measured after 24 hrs by broth microdilution assay; details: Lodderomyces parapsilosis
[8] = system: Aspergillus fumigatus; assay: Antifungal activity against Aspergillus fumigatus CMGCC3.7795 measured after 72 hrs by broth microdilution assay
[9] = system: Candida albicans; assay: Antifungal activity against fluconazole-resistant Candida albicans CaR assessed as inhibition of microbial growth after 24 hrs by broth microdilution method
[10] = system: Candida albicans; assay: Antifungal activity against fluconazole-resistant Candida albicans 17# assessed as inhibition of microbial growth after 24 hrs by broth microdilution method
[11] = system: Candida albicans; assay: Antifungal activity against fluconazole-resistant Candida albicans 632 assessed as inhibition of microbial growth after 24 hrs by broth microdilution method
[12] = system: Candida albicans; assay: Antifungal activity against fluconazole-resistant Candida albicans 901 assessed as inhibition of microbial growth after 24 hrs by broth microdilution method
[13] = system: Candida albicans; assay: Antifungal activity against fluconazole-resistant Candida albicans 904 assessed as inhibition of microbial growth after 24 hrs by broth microdilution method
[14] = system: Candida albicans; assay: Potency index, ratio of fluconazole MIC to test compound MIC for Candida albicans CPCC400616 measured after 24 hrs by broth microdilution assay

| Compound | MIC [1] [µg/mL] | MIC [2] [µg/mL] | MIC [3] [µg/mL] | MIC [4] [µg/mL] | MIC [5] [µg/mL] | MIC [6] [µg/mL] | MIC [7] [µg/mL] | MIC [8] [µg/mL] | MIC [9] [µg/mL] | MIC [10] [µg/mL] | MIC [11] [µg/mL] | MIC [12] [µg/mL] | MIC [13] [µg/mL] | Ratio [14] |
| --- | --- | --- | --- | --- | --- | --- | --- | --- | --- | --- | --- | --- | --- | --- |
| Fc1cccc([Se]C(Cn2ccnc2)c2ccc(F)cc2F)c1 (stereo not given) | 0.5 (≈ 1.31 µM) | 0.03 (≈ 0.0787 µM) | 0.5 (≈ 1.31 µM) | 0.5 (≈ 1.31 µM) | 0.13 (≈ 0.341 µM) | 1 (≈ 2.62 µM) | 0.25 (≈ 0.656 µM) | 8 (≈ 21 µM) | 4 | 4 | 1 | 2 | 2 | 8 |
| Clc1ccc(C[Se]C(Cn2cncn2)c2ccc(Cl)cc2Cl)c(Cl)c1 (stereo not given) | 0.25 (≈ 0.521 µM) | 0.25 (≈ 0.521 µM) | 128 (≈ 267 µM) | 64 (≈ 133 µM) | 128 (≈ 267 µM) | 0.5 (≈ 1.04 µM) | 64 (≈ 133 µM) | 16 (≈ 33.3 µM) | > 128 | > 128 | > 128 | > 128 | > 128 | – |
| Cc1ccc([Se]C(Cn2ccnc2)c2ccc(Cl)cc2Cl)cc1 (stereo not given) | 0.25 (≈ 0.609 µM) | 0.03 (≈ 0.0731 µM) | 0.25 (≈ 0.609 µM) | 0.13 (≈ 0.317 µM) | 0.5 (≈ 1.22 µM) | 0.25 (≈ 0.609 µM) | 0.5 (≈ 1.22 µM) | 8 (≈ 19.5 µM) | 32 | 4 | 4 | 8 | 16 | 8 |
| Fc1ccc(C(Cn2cncn2)[Se]Cc2ccc(Cl)cc2)c(F)c1 (stereo not given) | 0.13 (≈ 0.315 µM) | 0.13 (≈ 0.315 µM) | 4 (≈ 9.69 µM) | 4 (≈ 9.69 µM) | 128 (≈ 310 µM) | 0.5 (≈ 1.21 µM) | 64 (≈ 155 µM) | 8 (≈ 19.4 µM) | 128 | 16 | > 128 | 4 | 8 | – |
| Fc1ccc(C[Se]C(Cn2cncn2)c2ccc(Cl)cc2Cl)cc1 (stereo not given) | 2 (≈ 4.66 µM) | 0.13 (≈ 0.303 µM) | 64 (≈ 149 µM) | 8 (≈ 18.6 µM) | 128 (≈ 298 µM) | 4 (≈ 9.32 µM) | 64 (≈ 149 µM) | 16 (≈ 37.3 µM) | > 128 | > 128 | > 128 | > 128 | > 128 | – |
| Fc1ccc(C(Cn2cncn2)[Se]Cc2ccccc2)c(F)c1 (stereo not given) | 0.5 (≈ 1.32 µM) | 0.06 (≈ 0.159 µM) | 8 (≈ 21.1 µM) | 4 (≈ 10.6 µM) | 4 (≈ 10.6 µM) | 2 (≈ 5.29 µM) | 16 (≈ 42.3 µM) | 8 (≈ 21.1 µM) | 128 | 32 | > 128 | 16 | 16 | – |
| Cc1ccc(C[Se]C(Cn2cncn2)c2ccc(Cl)cc2Cl)cc1 (stereo not given) | 16 (≈ 37.6 µM) | 2 (≈ 4.7 µM) | 128 (≈ 301 µM) | 32 (≈ 75.3 µM) | 64 (≈ 151 µM) | 2 (≈ 4.7 µM) | 64 (≈ 151 µM) | 16 (≈ 37.6 µM) | > 128 | > 128 | > 128 | > 128 | > 128 | – |
| Cc1ccc(C[Se]C(Cn2cncn2)c2ccc(F)cc2F)cc1 (stereo not given) | 2 (≈ 5.1 µM) | 2 (≈ 5.1 µM) | 32 (≈ 81.6 µM) | 4 (≈ 10.2 µM) | 128 (≈ 326 µM) | 2 (≈ 5.1 µM) | 128 (≈ 326 µM) | 8 (≈ 20.4 µM) | > 128 | 64 | > 128 | > 128 | > 128 | – |
| Fc1ccc(C(Cn2cncn2)[Se]Cc2ccccc2Cl)c(F)c1 (stereo not given) | 0.03 (≈ 0.0727 µM) | 0.13 (≈ 0.315 µM) | 1 (≈ 2.42 µM) | 2 (≈ 4.85 µM) | 2 (≈ 4.85 µM) | 2 (≈ 4.85 µM) | 0.5 (≈ 1.21 µM) | 8 (≈ 19.4 µM) | 32 | 4 | 8 | 4 | 2 | – |
| Clc1ccc(C[Se]C(Cn2cncn2)c2ccc(Cl)cc2Cl)cc1 (stereo not given) | 16 (≈ 35.9 µM) | 2 (≈ 4.49 µM) | 128 (≈ 287 µM) | 16 (≈ 35.9 µM) | 128 (≈ 287 µM) | 2 (≈ 4.49 µM) | 64 (≈ 144 µM) | 16 (≈ 35.9 µM) | > 128 | > 128 | > 128 | > 128 | > 128 | – |
| Clc1ccc(C(Cn2cncn2)[Se]Cc2ccccc2Cl)c(Cl)c1 (stereo not given) | 0.03 (≈ 0.0673 µM) | 0.13 (≈ 0.292 µM) | 16 (≈ 35.9 µM) | 2 (≈ 4.49 µM) | 0.06 (≈ 0.135 µM) | 4 (≈ 8.98 µM) | 8 (≈ 18 µM) | 16 (≈ 35.9 µM) | > 128 | 8 | > 128 | > 128 | 32 | – |
| COc1ccc(C[Se]C(Cn2cncn2)c2ccc(F)cc2F)cc1 (stereo not given) | 1 (≈ 2.45 µM) | 2 (≈ 4.9 µM) | 32 (≈ 78.4 µM) | 32 (≈ 78.4 µM) | 32 (≈ 78.4 µM) | 2 (≈ 4.9 µM) | > 128 | 4 (≈ 9.8 µM) | 128 | 64 | > 128 | > 128 | > 128 | – |
| Fc1ccc(C(Cn2cncn2)[Se]Cc2ccc(Cl)cc2Cl)c(F)c1 (stereo not given) | 0.13 (≈ 0.291 µM) | 0.06 (≈ 0.134 µM) | 64 (≈ 143 µM) | 4 (≈ 8.95 µM) | 128 (≈ 286 µM) | 2 (≈ 4.47 µM) | > 128 | 16 (≈ 35.8 µM) | > 128 | 64 | > 128 | > 128 | > 128 | – |
| Clc1ccc(C(Cn2cncn2)[Se]Cc2ccccc2)c(Cl)c1 (stereo not given) | 0.13 (≈ 0.316 µM) | 0.13 (≈ 0.316 µM) | 64 (≈ 156 µM) | 2 (≈ 4.86 µM) | 128 (≈ 311 µM) | 4 (≈ 9.73 µM) | 32 (≈ 77.8 µM) | 16 (≈ 38.9 µM) | > 128 | 64 | > 128 | > 128 | > 128 | – |
| COc1ccc(C[Se]C(Cn2cncn2)c2ccc(Cl)cc2Cl)cc1 (stereo not given) | 16 (≈ 36.3 µM) | 1 (≈ 2.27 µM) | 32 (≈ 72.5 µM) | 16 (≈ 36.3 µM) | 64 (≈ 145 µM) | 4 (≈ 9.07 µM) | 32 (≈ 72.5 µM) | 4 (≈ 9.07 µM) | 128 | 32 | > 128 | 128 | 128 | – |
| Fc1ccc(C[Se]C(Cn2cncn2)c2ccc(F)cc2F)cc1 (stereo not given) | 1 (≈ 2.52 µM) | 0.25 (≈ 0.631 µM) | 4 (≈ 10.1 µM) | 0.5 (≈ 1.26 µM) | 8 (≈ 20.2 µM) | 2 (≈ 5.05 µM) | 32 (≈ 80.8 µM) | 8 (≈ 20.2 µM) | 128 | 32 | > 128 | > 128 | 64 | – |
